pIC50: −log10 of the molar value. One block for each compound: values may come before it.
System: K98450-129-R-PDC complex spheroid growth, percent test/control
Assay: Anticancer human tumor K98450-129-R-PDC patient-derived colon adenocarcinoma cell line growth inhibition [RAS]
Details: for pIC50: curve of first compound; for viability, T/C: stronger effect = lower value
Summary of the method: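 Multi-cell-type spheroids: tumor cells plus HUVEC endothelial cells and mesenchymal stem cells. RAS-pathway inhibitors were combined with targeted agents, each dosed in half-log steps down from clinical Cmax, or from 10 microM when Cmax was unknown.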
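Further: spheroids exposed to agents for seven days before the viability readout.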
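Wherever viability, T/C is given: luminescence used as a proxy for viable cell amount.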

pIC50 (second compound 0.000949 µM): 6.75
pIC50 (second compound 0.003 µM): 6.95
pIC50 (second compound 0.00949 µM): 8.45
pIC50 (second compound 0.03 µM): > 8.50
pIC50 (second compound 0.0949 µM): > 8.50
pIC50 (second compound 0.3 µM): > 8.50
SMILES: C=CC(=O)N1CCN(c2nc(OCC3CCCN3C)nc3c(F)c(-c4nc(N)cc(C)c4C(F)(F)F)c(Cl)cc23)C(C)C1 (centres undefined) + CCn1c(-c2cccnc2C(C)OC)c2c3cc(ccc31)N1CCOC(CC(NC(=O)C(C(C)C)N(C)C(=O)C3(F)CCN(C(=O)C#CC(C)(C)N(C)C)CC3)C(=O)N3CCCC(N3)C(=O)OCC(C)(C)C2)C1
viability, T/C (second compound 0.000949 µM, first compound 0.00316 µM): 81.6%
viability, T/C (second compound 0.000949 µM, first compound 0.01 µM): 69.9%
viability, T/C (second compound 0.000949 µM, first compound 0.0316 µM): 63.1%
viability, T/C (second compound 0.000949 µM, first compound 0.1 µM): 55.4%
viability, T/C (second compound 0.000949 µM, first compound 0.316 µM): 46.6%
viability, T/C (second compound 0.000949 µM, first compound 1 µM): 36%
viability, T/C (second compound 0.003 µM, first compound 0.00316 µM): 69.4%
viability, T/C (second compound 0.003 µM, first compound 0.01 µM): 54%
viability, T/C (second compound 0.003 µM, first compound 0.0316 µM): 52.8%
viability, T/C (second compound 0.003 µM, first compound 0.1 µM): 56.2%
viability, T/C (second compound 0.003 µM, first compound 0.316 µM): 45.9%
viability, T/C (second compound 0.003 µM, first compound 1 µM): 35.2%
viability, T/C (second compound 0.00949 µM, first compound 0.00316 µM): 52.8%
viability, T/C (second compound 0.00949 µM, first compound 0.01 µM): 46.8%
viability, T/C (second compound 0.00949 µM, first compound 0.0316 µM): 43.8%
viability, T/C (second compound 0.00949 µM, first compound 0.1 µM): 44.9%
viability, T/C (second compound 0.00949 µM, first compound 0.316 µM): 39.9%
viability, T/C (second compound 0.00949 µM, first compound 1 µM): 41.9%
viability, T/C (second compound 0.03 µM, first compound 0.00316 µM): 39.4%
viability, T/C (second compound 0.03 µM, first compound 0.01 µM): 37.1%
viability, T/C (second compound 0.03 µM, first compound 0.0316 µM): 40.4%
viability, T/C (second compound 0.03 µM, first compound 0.1 µM): 40.7%
viability, T/C (second compound 0.03 µM, first compound 0.316 µM): 43.2%
viability, T/C (second compound 0.03 µM, first compound 1 µM): 39.9%
viability, T/C (second compound 0.0949 µM, first compound 0.00316 µM): 36.6%
viability, T/C (second compound 0.0949 µM, first compound 0.01 µM): 34.3%
viability, T/C (second compound 0.0949 µM, first compound 0.0316 µM): 42.1%
viability, T/C (second compound 0.0949 µM, first compound 0.1 µM): 37.2%
viability, T/C (second compound 0.0949 µM, first compound 0.316 µM): 43.5%
viability, T/C (second compound 0.0949 µM, first compound 1 µM): 33.7%
viability, T/C (second compound 0.3 µM, first compound 0.00316 µM): 29.8%
viability, T/C (second compound 0.3 µM, first compound 0.01 µM): 35.3%
viability, T/C (second compound 0.3 µM, first compound 0.0316 µM): 42.9%
viability, T/C (second compound 0.3 µM, first compound 0.1 µM): 29%
viability, T/C (second compound 0.3 µM, first compound 0.316 µM): 36.1%
viability, T/C (second compound 0.3 µM, first compound 1 µM): 38%

pIC50 (second compound 0.000949 µM): < 6.52
pIC50 (second compound 0.003 µM): < 6.52
pIC50 (second compound 0.00949 µM): < 6.52
pIC50 (second compound 0.03 µM): > 9.02
pIC50 (second compound 0.0949 µM): > 9.02
pIC50 (second compound 0.3 µM): > 9.02
SMILES: CC1(C)CCC(Nc2ncc(C(F)(F)F)c(-c3c[nH]c4c(P(C)(C)=O)c(C#N)ccc34)n2)CN1 (centres undefined) + CCn1c(-c2cccnc2C(C)OC)c2c3cc(ccc31)N1CCOC(CC(NC(=O)C(C(C)C)N(C)C(=O)C3(F)CCN(C(=O)C#CC(C)(C)N(C)C)CC3)C(=O)N3CCCC(N3)C(=O)OCC(C)(C)C2)C1
viability, T/C (second compound 0.000949 µM, first compound 0.000949 µM): 88.2%
viability, T/C (second compound 0.000949 µM, first compound 0.003 µM): 72.2%
viability, T/C (second compound 0.000949 µM, first compound 0.00949 µM): 83.1%
viability, T/C (second compound 0.000949 µM, first compound 0.03 µM): 79.9%
viability, T/C (second compound 0.000949 µM, first compound 0.0949 µM): 80.8%
viability, T/C (second compound 0.000949 µM, first compound 0.3 µM): 53.8%
viability, T/C (second compound 0.003 µM, first compound 0.000949 µM): 72.4%
viability, T/C (second compound 0.003 µM, first compound 0.003 µM): 52.9%
viability, T/C (second compound 0.003 µM, first compound 0.00949 µM): 64.5%
viability, T/C (second compound 0.003 µM, first compound 0.03 µM): 67.7%
viability, T/C (second compound 0.003 µM, first compound 0.0949 µM): 61.1%
viability, T/C (second compound 0.003 µM, first compound 0.3 µM): 50.4%
viability, T/C (second compound 0.00949 µM, first compound 0.000949 µM): 52.5%
viability, T/C (second compound 0.00949 µM, first compound 0.003 µM): 45.5%
viability, T/C (second compound 0.00949 µM, first compound 0.00949 µM): 52.7%
viability, T/C (second compound 0.00949 µM, first compound 0.03 µM): 53.4%
viability, T/C (second compound 0.00949 µM, first compound 0.0949 µM): 51.8%
viability, T/C (second compound 0.00949 µM, first compound 0.3 µM): 49.6%
viability, T/C (second compound 0.03 µM, first compound 0.000949 µM): 45%
viability, T/C (second compound 0.03 µM, first compound 0.003 µM): 42.9%
viability, T/C (second compound 0.03 µM, first compound 0.00949 µM): 43.2%
viability, T/C (second compound 0.03 µM, first compound 0.03 µM): 45.1%
viability, T/C (second compound 0.03 µM, first compound 0.0949 µM): 48.2%
viability, T/C (second compound 0.03 µM, first compound 0.3 µM): 43.5%
viability, T/C (second compound 0.0949 µM, first compound 0.000949 µM): 39.2%
viability, T/C (second compound 0.0949 µM, first compound 0.003 µM): 41.1%
viability, T/C (second compound 0.0949 µM, first compound 0.00949 µM): 44.7%
viability, T/C (second compound 0.0949 µM, first compound 0.03 µM): 41.8%
viability, T/C (second compound 0.0949 µM, first compound 0.0949 µM): 50.3%
viability, T/C (second compound 0.0949 µM, first compound 0.3 µM): 43.1%
viability, T/C (second compound 0.3 µM, first compound 0.000949 µM): 34.3%
viability, T/C (second compound 0.3 µM, first compound 0.003 µM): 40.7%
viability, T/C (second compound 0.3 µM, first compound 0.00949 µM): 43.1%
viability, T/C (second compound 0.3 µM, first compound 0.03 µM): 36.2%
viability, T/C (second compound 0.3 µM, first compound 0.0949 µM): 46.9%
viability, T/C (second compound 0.3 µM, first compound 0.3 µM): 42%

From PubChem BioAssay AID2060891 (Molecular Pharmacology Branch, DTP, NCI, 2025)
